Patent US20250019350A1, “SYNTHESIS OF THE PROSTATE SPECIFIC MEMBRANE ANTIGEN (PSMA) RADIOLABELED INHIBITOR [18F]DCFPYL” (Progenics Pharmaceuticals, Inc, priority 2023, published 2025)

Experiments:
[1] = @ 10 hr; ascorbic acid at 10 mg/mL (Fawdry 2007); cited from earlier work
[2] = Retention/recovery of [19F]DCFPyL on the HLB solvent exchange cartridge as a function of pH (load, wash, product samples); type: physicochemical
Method: The goal of this study was to characterize the impact of pH on the retention of [^18F]DCFPyL on the HLB solvent exchange cartridge. […] The pH of one solution was adjusted to 2 and a second to 4 by adding 1N HCl. A third solution was used without adjusting its native pH of 7.2. Using a BD syringe, 10 mL of each solution was spiked with [^19F]DCFPyL (50 μg) by adding 0.5 mL of a 100 μg/mL stock solution. Each spiked solution was loaded onto a HLB cartridge at a rate of approximately 2 mL/min. […] The eluent from each HLB cartridge was individually collected and identified as the “wash solution.” Each HLB cartridge was then individually eluted with 1 mL of ethanol, the samples collected and are identified as the “product sample.” The load solution and wash solution samples were analyzed using a drug product chemical impurity assay after a 1 to 10 mL dilution with saline, while the ethanolic product samples were analyzed following a 0.5 to 10 dilution with saline.
The goal of this study was to characterize the impact of pH on the retention of ^18F-DCFPyL on the HLB solvent exchange cartridge. […] The pH of one solution was adjusted to 2 and a second to 4 by adding 1N HCl. A third solution was used without adjusting its native pH of 7.2. At this pH the solution will be mainly sodium ascorbate. Using a BD syringe, 10 mL of each solution was spiked with ^19F-DCFPyL (50 μg) by adding 0.5 mL of a 100 μg/mL stock solution. Each spiked solution was loaded onto an HLB cartridge at a rate of approximately 2 mL/min and the solution collected after the HLB column is identified as the load solution. […] Each HLB cartridge was then individually eluted with 1 mL of ethanol, the solution collected after the HLB column is identified as the product sample. The load solution and wash solution samples were analyzed using the drug product chemical impurity assay after a 1 to 10 mL dilution with saline, while the ethanolic product samples were analyzed following a 0.5 to 10 mL dilution with saline.

[3] = HPLC/UV (264 nm) chemical impurity assay; ascorbic acid related impurity; type: physicochemical; conditions: 5 mg/mL, pH 6 ascorbic acid solution with free 18F (129 mCi/mL)
Method: Analytical HPLC method was used. The method employs UV detection at 264 nm for chemical impurities, and an Eckert & Ziegler model B-FC-1000 gamma detector for radiochemical assays.
Since the peak has not been previously observed in preparations in the absence of ascorbic acid it is likely ascorbic acid related and was further investigated. A decayed sample from the lot produced was analyzed further and confirmed the presence of the peak, FIG. 35. […] The sample was assayed for chemical impurities at T=0, 4, 10 and 24 hours when held inverted at ambient conditions. […] The impurity only formed with radioactivity exposure but not when stored in light or dark at ambient conditions (see FIG. 37).

[4] = cited from earlier work
[5] = HLB pH 2 Product, first Ethanol elution
[6] = HLB pH 2 Product, second Ethanol elution
[7] = HLB pH 2 Product, third Ethanol elution

## OC[C@H]1O[C@@H](O)[C@H]([18F])[C@@H](O)[C@@H]1O [FDG]
[1]
  de-fluorination: less than 2%

## O=C(O)CC[C@H](NC(=O)N[C@@H](CCCCNC(=O)c1ccc(F)nc1)C(=O)O)C(=O)O [Lot 19F-DCFPyL]
[2]; 10 mg/mL ascorbic acid, pH 7.2
  retention by the HLB cartridge: not meaningfully retained
[2]; HLB Saline pH 7 Rinse
  19F-DCFPyL recovered (%): 0.0%
  μg of 19F-DCFPyL recovered: Not Detected
[2]; HLB pH 2 Load
  19F-DCFPyL recovered (%): 0.0%
  μg of 19F-DCFPyL recovered: Not Detected
[2]; [5]
  19F-DCFPyL recovered (%): 69.5%
  μg of 19F-DCFPyL recovered: 35.423 µg
[2]; [6]
  19F-DCFPyL recovered (%): 21.5%
  μg of 19F-DCFPyL recovered: 10.946 µg
[2]; [7]
  19F-DCFPyL recovered (%): 7.1%
  μg of 19F-DCFPyL recovered: 3.629 µg
[2]; HLB pH 2 Rinse
  19F-DCFPyL recovered (%): 0.0%
  μg of 19F-DCFPyL recovered: Not Detected
[2]; HLB pH 4 Load
  19F-DCFPyL recovered (%): 22.0%
  μg of 19F-DCFPyL recovered: 10.504 µg
[2]; HLB pH 4 Product
  19F-DCFPyL recovered (%): 57.7%
  μg of 19F-DCFPyL recovered: 27.989 µg
[2]; HLB pH 4 Rinse
  19F-DCFPyL recovered (%): 0.0%
  μg of 19F-DCFPyL recovered: Not Detected
[2]; HLB pH 7 Load
  19F-DCFPyL recovered (%): 87.4%
  μg of 19F-DCFPyL recovered: 38.239 µg
[2]; HLB pH 7 Product
  19F-DCFPyL recovered (%): 0.0%
  μg of 19F-DCFPyL recovered: Not Detected
[2]; pH 2
  19F-DCFPyL in the load or wash samples: not detected
[2]; pH 2 Control
  μg of 19F-DCFPyL recovered: 50.976 µg
[2]; pH 4
  19F-DCFPyL in the product sample, % of the total amount recovered from all samples: approximately 68%
  19F-DCFPyL recovered in the load sample: approximately 31%
  19F-DCFPyL recovered in the load sample (mass): < 1 µg
[2]; pH 4 Control
  μg of 19F-DCFPyL recovered: 47.665 µg
[2]; pH 7 Control
  μg of 19F-DCFPyL recovered: 43.759 µg
[2]; pH 7.2
  19F-DCFPyL recovered in the wash samples: 3.8 µg/mL

## O=C1O[C@H]([C@@H](O)CO)C(O)=C1O [ascorbic acid]
[3]; T = 0 hours, ambient
  4.6 min RT peak (HPLC UV): not present
[3]; T = 24 hours, relative response factor of 1 to [19F]-DCFPyL standard
  4.6 min RT peak (HPLC UV), approximate concentration: ~1.75 µg/mL
[4]
  pKa: about 4.2
